This is an account of results in PubChem BioAssay AID449764 (Southern Research Specialized Biocontainment Screening …, 2010).

This test concerns Mycobacterium tuberculosis H37Rv growth inhibition, no glycerol. Description: Confirmatory growth inhibition assay, Mycobacterium tuberculosis H37Rv, absence of glycerol (AID 449764).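 As to all read-outs here: growth read after 7 days of incubation.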 The conditions noted are these: for IC90: measured here: IC90 growth inhibition.

The structures appear in SMILES notation. Where only a bound is given, the exact number is not on record here.

As usually defined, the IC50 is the concentration needed to halve the response being measured. In general, IC90 refers to the concentration at which the effect reaches the 90% level. For the compound `Nc1c(-c2ccccn2)cnn1-c1nc(-c2ccc(F)cc2)cs1`, the IC50 was 59.7 µM and the IC90 was above 100 µM.

Turning to `O=C(/C=C/c1ccco1)Oc1ccc(C(=S)N2CCOCC2)cc1`, the IC50 is 60.3 µM and the IC90 is above 100 µM.

`COC(=O)c1ccc(CSc2nc(C(F)(F)F)c3c(c2C#N)CCC3)o1` showed an IC90 above 100 µM.

For `CCc1nnc(NS(=O)(=O)c2ccc(N/C=C\C(=O)c3cccc(OC)c3)cc2)s1`, the IC50 was 38.5 µM and the IC90 amounted to 53 µM.

Take `Cc1cc(C)c2c(CN3CCN(Cc4ccccc4)CC3)cc(=O)oc2c1C`: the IC50 is 48.1 µM and the IC90 stood at 55.2 µM.

Consider `CC1CCN(C(=O)C2CCN(c3nnc(-n4cccc4)s3)CC2)CC1`, for which the IC50 was 3.51 µM and the IC90 is 6.13 µM.

Regarding `Cc1ccc2nc(N/N=C/c3ccccc3C#N)nc(-c3ccccc3)c2c1`, the IC50 was 91.1 µM and the IC90 was above 100 µM.

For the compound `CCOC(=O)CNC(=O)c1sc2ncnc(N3CCc4ccccc4C3)c2c1C`, the IC50 was 79.1 µM and the IC90 was determined as 97.7 µM.

In the case of `CCCc1ccc2oc(C(=O)N(C)Cc3nccs3)c(C)c2c1`, the IC50 is 45 µM and the IC90 stood at 68.3 µM.

For the compound `COc1c[nH]n(C2CCCCC2)c(=O)c1=O`, the IC50 is 24.1 µM and the IC90 turned out to be 27.6 µM.

For `Cc1c(Cl)ccc2sc(N3CCN(C(=O)C4=COCCO4)CC3)nc12`, the 50% inhibitory concentration (IC50) is 22.5 µM and the IC90 came out at 30.6 µM.

Consider `Cn1c(CNc2nc(-c3ccccc3)cs2)nnc1SCC(=O)OC1CCCCC1`, for which the IC50 was 24 µM and the IC90 was determined as 27.3 µM.

Consider `CCCCCCCCCCCCCCCC[N+](C)(C)CC`, for which the half-inhibitory concentration (IC50) is 36.1 µM and the IC90 was 48.4 µM.

Consider `CCCCCC1CC(CC(=O)NC(=S)Nc2ccc([N+](=O)[O-])cc2)C(=O)O1` (configuration not stated), for which the IC90 is above 100 µM.

In the case of `CC1CCC(NC(=O)c2cc3c(s2)CCCC3)CC1` (configuration not stated), the IC50 is 67.7 µM and the IC90 is above 100 µM.

Consider `CC1(C)Cc2ccccc2C2=NNC(=O)C2=N1`, for which the IC50 was 11.2 µM and the IC90 turned out to be 15.1 µM.

With `Cc1cccc(N(C(=O)c2nsc(Cl)c2Cl)C(C(=O)NC2CCCC2)c2ccc(O)cc2)c1C` (configuration not stated), the IC50 was 30.8 µM and the IC90 came to 41 µM.

As for `O=C(Nc1nc(-c2cc(Cl)sc2Cl)cs1)c1cccs1`, the IC50 was 67.7 µM and the IC90 is above 100 µM.

As for `CN(C)C(=O)C1C2NC(=S)N(c3ccc(Cl)cc3)C1(C)Oc1ccc(Cl)cc12` (configuration not stated), the IC50 was 31.7 µM and the IC90 was 55.5 µM.

As to `CCN(CC)C(=O)[C@H]1CC(CC(=O)NCC23CC4CC(CC(C4)C2)C3)C(=O)N2CCc3c([nH]c4ccccc34)[C@]12C` (some centres not stated), the IC50 is 19.4 µM and the IC90 stood at 29.7 µM.

For the compound `Nc1nonc1C(=O)NCCNCc1c(OCc2ccccc2F)ccc2ccccc12`, the IC50 was 39.5 µM and the IC90 was 54.4 µM.

In the case of `CC(C)(C)NC(=O)COC(=O)c1cc(Br)ccc1Cl`, the IC50 was 24.3 µM and the concentration for an effect of 90% (IC90) came out at 45.4 µM.

With `COc1ccc(N2CCN(C(=O)c3ccc(CNc4c(N5CCOCC5)c(=O)c4=O)cc3)CC2)cc1`, the IC50 was 2.96 µM and the IC90 came out at 3.24 µM.

On to `CCc1ccc(NC2=NCC(c3ccccc3)S2)cc1` (configuration not stated), for which the half-maximal inhibitory concentration (IC50) was 8.96 µM and the IC90 was determined as 16.7 µM.

Regarding `CCOC(=O)c1cc(C)nc(Sc2ccc(C)cc2)c1C#N`, the half-inhibitory concentration (IC50) was 5.32 µM and the IC90 amounted to 7.74 µM.

Regarding `Cc1nn(CCc2nn[nH]n2)c2nc(-c3ccc(Br)cc3)cc(C(F)(F)F)c12`, the IC50 was 8.29 µM and the IC90 was 16.8 µM.

`Clc1ccc2c(c1)CCc1cccnc1C2=C1CCNCC1`: the IC50 is 32.9 µM and the IC90 is 38.8 µM.

On to `COc1ccc(C(CC(=O)c2ccccc2)S(=O)(=O)c2ccc(C)cc2)cc1` (configuration not stated), for which the IC50 was 56.3 µM and the IC90 was determined as 92.2 µM.

Regarding `O=C(CN1CCCCC1)Nc1nnc(-c2ccc([N+](=O)[O-])cc2)s1`, the concentration for half-maximal inhibition (IC50) was 44.9 µM and the IC90 was found to be 69.6 µM.

As for `COc1cccc(N2CCN(c3ncnc4c3[nH]c3ccccc34)CC2C)c1` (configuration not stated), the IC50 was 27.1 µM and the concentration for an effect of 90% (IC90) was 42.5 µM.

With `O=[N+]([O-])c1cc([N+](=O)[O-])c2cc3ccccc3nc2c1`, the IC50 was below 0.2 µM and the IC90 stood at 0.64 µM.

In turn, `CC(C(Sc1ccccc1N)c1ccccc1)[N+](=O)[O-]` (configuration not stated) came in with an IC90 above 100 µM.

For `C/C(=N\NC(=O)COc1ccc(C)cc1Br)c1cc([N+](=O)[O-])cs1`, the IC50 is 24 µM and the IC90 turned out to be 26.4 µM.

Consider `N#Cc1c(-c2ccccc2)c(-c2ccccc2)nn(CC(=O)NNC(=O)Nc2ccc(Cl)c(Cl)c2)c1=O`, for which the IC50 was 47.9 µM and the IC90 turned out to be 54.7 µM.

With `Cn1cccc1/C=C1/C(=O)NC(=S)N(Cc2ccc(F)cc2)C1=O`, the IC90 was above 100 µM.

For the compound `COc1ccc(-c2ccc(-c3noc(C(C)C)n3)c(OC)n2)cc1`, the IC50 is 40.3 µM and the IC90 turned out to be 54.6 µM.

`CC(=O)c1ccc(Sc2nnnn2-c2ccccc2)c([N+](=O)[O-])c1`: the IC50 is 19.8 µM and the IC90 worked out at 31.8 µM.

Turning to `N#Cc1nc(-c2ccc(OCc3ccccc3)cc2)oc1NCCCn1ccnc1`, the IC50 is 37.5 µM and the IC90 is 43 µM.

On to `CCN1CCN(c2oc(COc3ccc(-c4ccccc4)cc3)nc2C#N)CC1`, for which the IC50 is 36.4 µM and the IC90 was 47.6 µM.

`Cc1ccc(C(=O)Sc2cccccc2=O)cc1`: the IC50 is 1.53 µM and the 90% effect concentration (IC90) stood at 2.12 µM.

With `O=C(CSC(=S)N1CCCC1)c1cc(Br)cc(Br)c1O`, the IC50 was 41.2 µM and the concentration for an effect of 90% (IC90) came to 45.4 µM.

In the case of `Oc1ccccc1Nc1nc(NCc2ccccc2)c2ccccc2n1`, the half-inhibitory concentration (IC50) is 19.1 µM and the IC90 was found to be 24.1 µM.

As to `CCN(CC)c1ccc(N)cc1`, the IC50 was 8.96 µM and the IC90 stood at 11.2 µM.

For the compound `CCc1ccc(C2c3[nH]c4ccccc4c3CCN2C(=O)c2ccc(=O)n(C)n2)cc1` (configuration not stated), the IC50 was 51.3 µM and the IC90 was 93.4 µM.

With `C(=N\Nc1nc(-c2ccccc2)cs1)/c1ccncc1`, the IC50 was 62.7 µM and the IC90 was 79.9 µM.

In the case of `O=C1NCC(c2ccccc2)C1C(=O)N/N=C\c1ccc(-c2ccc(Cl)c(Cl)c2)o1` (configuration not stated), the IC90 is above 100 µM.

Regarding `Cc1ccc2c(c1)c1c3n2CCN=C3CCC1`, the IC50 was 10.5 µM and the IC90 was 16 µM.

In the case of `O=C1c2cccc3c([N+](=O)[O-])ccc(c23)C(=O)N1O`, the IC50 was 11.9 µM and the IC90 was found to be 13.5 µM.

Take `Cc1cc(C)nc(Sc2ncnc(N)c2[N+](=O)[O-])n1`: the IC50 was 19.3 µM and the IC90 stood at 25.5 µM.

Take `O=C(CCl)c1ccc2c(c1)CCN2C(=O)C1CCCCC1`: the IC50 was 41.5 µM and the IC90 is above 100 µM.

Regarding `COC(=O)[C@H](CCSC)NC(=O)N1CCN(c2cccc(C(F)(F)F)c2)CC1`, the IC50 was 29 µM and the 90% effect concentration (IC90) was determined as 58.8 µM.

`COc1cccc(-c2cnc(NCc3cc(Cl)ccc3O)n2C)c1`: the 50% inhibitory concentration (IC50) is 21.1 µM and the IC90 turned out to be 23.4 µM.

For `Cc1cccc(N2CCN(CC(=O)Nc3nccs3)CC2)c1C`, the IC50 was 39.3 µM and the IC90 was 69.2 µM.

As for `CCC(C)N1CCC2(CC1)N=c1c(c3c4c5c(C)c(O)c3c(O)c1=NC(=O)C(C)=CC=C[C@H](C)[C@H](O)[C@@H](C)[C@@H](O)[C@@H](C)[C@H](OC(C)=O)[C@H](C)[C@@H](OC)C=CO[C@@](C)(O5)C4=O)N2` (some centres not stated), the IC50 is below 0.2 µM and the IC90 is below 0.2 µM.

For the compound `COc1nc(-c2ccccc2)cc(-c2ccc(OC)c(OC)c2)n1`, the IC50 is 86.4 µM and the IC90 is above 100 µM.

For `CCOC(=O)C1CCN(C(=O)CSCc2nc(-c3ccc(OCC)cc3)oc2C)CC1`, the IC50 was 46 µM and the IC90 was determined as 49.2 µM.

On to `CC1(C)CC(=O)C2=C(C1)NC(Nc1nc3ccccc3o1)=NC2c1ccccn1` (configuration not stated), for which the IC50 is 2.99 µM and the IC90 was 6.27 µM.

Regarding `N/C(=N\OC(=O)Nc1ccc(Cl)c(Cl)c1)c1ncc(C(F)(F)F)cc1Cl`, the IC50 was 28.9 µM and the IC90 is 35.7 µM.

For the compound `Cc1ccc2nc(/N=C(\N)NC(=O)NC3CCCCC3)nc(C)c2c1`, the IC50 is 6.71 µM and the 90% effect concentration (IC90) worked out at 16.6 µM.

`C#CCOCCOCCOCCNc1nc(N2CCN(C(=O)CCCCCCCCCCNC(=O)[C@H](CCCCN)n3cc(CCCC(=O)O)nn3)CC2)nc(N2CCN(C(=O)CCCCCCCCCCNC(=O)[C@H](CCCN=C(N)N)n3cc(C[C@@H](C)CC)nn3)CC2)n1`: the IC50 is 6.73 µM and the IC90 was 9.93 µM.

Regarding `CN(C)c1ccc(-c2cc(O)c3ncccc3c2)cc1`, the 50% inhibitory concentration (IC50) was 2.63 µM and the IC90 is 3.53 µM.

Turning to `Cc1ccc(N2CCN(C(=O)c3cn(CC4CCCCC4)nn3)C(C)C2)cc1` (configuration not stated), the IC50 was 39.5 µM and the concentration for an effect of 90% (IC90) stood at 50.3 µM.

As to `O[C@@H](c1cc(C(F)(F)F)nc2c(C(F)(F)F)cccc12)[C@H]1CCCCN1`, the IC50 was 22.7 µM and the IC90 is 25.5 µM.

On to `CC(C)(C)CC(C)(C)c1ccc(OCCOCC[N+](C)(C)Cc2ccccc2)cc1`, for which the IC50 is 42.8 µM and the IC90 is 47.1 µM.

On to `C=C[C@]1(C)C[C@@H](OC(=O)CSCCN(CC)CC)[C@]2(C)C(C)CC[C@]3(CCC(=O)[C@H]32)[C@@H](C)[C@@H]1O` (some centres not stated), for which the concentration for half-maximal inhibition (IC50) is 5.69 µM and the IC90 turned out to be 8.16 µM.

In the case of `Cc1cc(CC(C)C)n(-c2nc3ccccc3c(=O)n2OCC(N)=O)n1`, the IC50 was 11.2 µM and the IC90 was determined as 20.6 µM.

Consider `S=C(NCCN1CCOCC1)N/N=C/c1cccs1`, for which the half-inhibitory concentration (IC50) was 6.31 µM and the concentration for an effect of 90% (IC90) came to 7.16 µM.

In the case of `CC1=NN(c2ccc(C)c(C)c2)C(=O)/C1=C\C=C\c1ccc([N+](=O)[O-])o1`, the IC50 was 10.9 µM and the IC90 turned out to be 17.7 µM.

In the case of `COc1cc(CNCCc2ccccc2)cc(Cl)c1OCc1ccccc1`, the IC50 was 23.8 µM and the IC90 was found to be 26.2 µM.

As for `O=C(N/N=C/c1cccc2cccnc12)[C@H]1C[C@@H]1c1ccccc1`, the IC50 is 38.2 µM and the IC90 is 56 µM.

With `Cc1sc2ncnc(Oc3ccc(-n4ccnc4)cc3)c2c1C`, the IC50 was 39.1 µM and the IC90 worked out at 61 µM.
